Data published in US20050047997A1, “Method for the evaluation of the efficiency of a therapeutic action upon the human organism” (priority 1997, published 2005).

How the values were obtained:
Format in all cases: in vivo, human
[1] = system: arterial pressure; experiment: Arterial pressure monitoring in hypertension patients; conditions: monitored every other day
Procedure: (§1) Selected hypertension patients are divided into two groups. The reference group includes 48 patients and the experimental group includes 56 patients. Each group consists of 60% of females, the rest being males. All the patients in the same group differ in age by not more than 1 year. The patients from the experimental group are treated with a hypotensive medication belonging to calcium current blocking agents—Corinfar, (see […], lines from 1 to 3), while those from the reference group are treated with a medication that blocks angiotensin-transforming enzyme (ATE) Prestarium (see FIG. 3, lines from 4 to 6). The period from the beginning of the relapse till the inclusion of the patient into the experiment is chosen to be 2 days. The phase of the disease is selected to be hypertension of medium exacerbation. The prevailing disease localization is its cerebral variant, in other words, the variant characterized by prevailing damage of cerebral vessels. The initial level of the homeostasis characteristics is set by the characteristic of electrolytic homeostasis, i.e. the sodium level, and is equal to 140 mmol/l for both groups. The patients' arterial pressure was monitored every other day, which corresponded to the period of time that is characterized by a significant decrease in arterial pressure under the effect of ATE blocking agent. […]

[2] = Electrolytic homeostasis (sodium level) in treated hypertension patients; conditions: initial level 140 mmol/l
Procedure: as §1

[3] = system: ulcerous defect; experiment: Ulcer healing (cicatrization of ulcerous defect) in ulcer patients; conditions: compared with the other group
Procedure: As a result, each group consists of patients of the same sex or features the same proportion of males and females who differ in age by not more than one year. […] Thus, patients with the stomach ulcer are ranked by the ulcerous defect localization with the accuracy of 1/9th of the stomach sections: cardia, subcardia, upper, middle and lower thirds of the stomach body, angle, anthral and prepyloric sections, pylorus. The initial surface area of the ulcerous defect is measured. Then the current stage (phase) of the disease: acute stage (the stage of ulcer forming), stationary stage or “plateau” and the stage of reparation proper (see FIG. 4) is determined for each patient on the basis of clinical, laboratory and instrumental indications. These phases characterize the period of time that passed since the beginning of relapse (exacerbation or start) of the disease till the patient was included into the clinical experiment. […]
The quantitative number of patients in groups must provide the statistical reliability of the results. In the given example the group treated with a reference medical preparation consisted of 73 patients, while the group treated with the medical preparation that had to be evaluated consisted of 81 patients. […] The control time is determined for the selected groups of ulcer patients. […]

[4] = Homeostasis (lipid metabolism) indicators in treated ulcer patients
Procedure: As a result, each group consists of patients of the same sex or features the same proportion of males and females who differ in age by not more than one year. […] Thus, patients with the stomach ulcer are ranked by the ulcerous defect localization with the accuracy of 1/9th of the stomach sections: cardia, subcardia, upper, middle and lower thirds of the stomach body, angle, anthral and prepyloric sections, pylorus. The initial surface area of the ulcerous defect is measured. Then the current stage (phase) of the disease: acute stage (the stage of ulcer forming), stationary stage or “plateau” and the stage of reparation proper (see FIG. 4) is determined for each patient on the basis of clinical, laboratory and instrumental indications. These phases characterize the period of time that passed since the beginning of relapse (exacerbation or start) of the disease till the patient was included into the clinical experiment. The method in question uses homeostasis indications, particularly those related to lipid metabolism, for the evaluation of the efficiency of the therapeutic action. Based on the above principle, the patients are divided into subgroups according to the following classification: • cholesterol (CS); • high density lipoproteins (HDLP); • low density lipoproteins (LDLP); • very low density lipoproteins (VLDLP); • triglycerides (TG); • atherogenicity factor (AF).
The quantitative number of patients in groups must provide the statistical reliability of the results. In the given example the group treated with a reference medical preparation consisted of 73 patients, while the group treated with the medical preparation that had to be evaluated consisted of 81 patients. The reference group was treated with a medication belonging to proton pump blocking agent (for example, Zerocid), while the experimental group was treated with a medication belonging to antacids (for example, Maalox). If the studied medications are only to be ranked by the efficiency of their action upon the organism rather than compared with each other, placebo can be used as a reference medication. The control time is determined for the selected groups of ulcer patients. The control is performed individually for each ranked experimental group. […]
The initial efficiency criterion was a complete healing of ulcerous defect combined with the dynamics of the change in homeostasis characteristics. The individual temporal norm was represented by a time interval calculated on the basis of individual characteristics of the ulcer healing process that corresponded to the individual characteristics of the homeostasis indications, for instance, to the characteristics of lipid metabolism calculated by the known formulas. […]

level of sodium after treatment [2] [µM]	Compound	arterial pressure change as a result of treatment [1]	cicatrization of ulcerous defects [3]	effect upon the atherogenesis and oncogenesis judged from lipid spectrum indications [4]	HDLP indicators ([4]; FIG. 2a, lines 1-16)	atherogenicity factor (AF) ([4]; during treatment)	level of triglycerides (TG) ([4]; during treatment)
146000	COC(=O)C1=C(C)NC(C)=C(C(=O)OC)C1c1ccccc1[N+](=O)[O-] [Corinfar]	decreased by comparable values					
137000	CCC[C@H](N[C@@H](C)C(=O)N1[C@H](C(=O)O)C[C@@H]2CCCC[C@@H]21)C(=O)OCC [Prestarium]	decreased by comparable values					
	COc1ccc2[nH]c([S+]([O-])Cc3ncc(C)c(OC)c3C)nc2c1 (stereo not drawn) [Zerocid]		faster	clearly negative effect	decreasing	increasing	increasing
